{"source": "patent US20260166039A1", "about": "(SCHRÖDINGER, INC., priority 2022, published 2026)", "data": [{"target": "T1, Wee1 kinase domain (Homo sapiens, UniProt P30291)", "T1 construct": "Wee1 kinase domain was purchased from Carna (catalog #05-177); purchased Carna 05-177", "T1 sequence (P30291 299-569 limits assumed)": "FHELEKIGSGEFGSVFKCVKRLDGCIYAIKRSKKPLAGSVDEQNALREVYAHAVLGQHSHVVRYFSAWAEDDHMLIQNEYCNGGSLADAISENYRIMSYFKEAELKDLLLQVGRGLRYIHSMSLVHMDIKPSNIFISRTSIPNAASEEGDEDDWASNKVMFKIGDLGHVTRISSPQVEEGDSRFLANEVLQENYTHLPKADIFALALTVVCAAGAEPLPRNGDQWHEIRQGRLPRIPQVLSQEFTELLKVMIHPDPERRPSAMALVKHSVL", "assay": "Wee1 Kinase Biochemical Assay (ADP-Glo)", "conditions": "class symbols; 1 nM Wee1 enzyme, 15 uM ATP, 4 hours at 25° C.", "outline": "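1 nM enzyme; 15 uM ATP; 2 ng/mL poly(Lys,Tyr 4:1); 40 mM Tris-HCl, 20 mM MgCl2, 0.1 mg/mL BSA, 2 mM DTT; 4 h, 25 °C; ADP-Glo; % inhibition vs DMSO and saturating positive-control wells.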", "units": {"IC50": "nM"}, "values": [{"compound": "CN1C[C@H]2C[C@@H]1CN2c1ccc(Nc2ncc3c(n2)N(c2cccc(C(C)(C)O)n2)[C@H]2CC(C)(C)OC[C@@]32C)cc1", "note": "(single isomer, unassigned) [Example 414]", "IC50": "100 to 1000"}, {"compound": "CN1C[C@@H]2C[C@H]1CN2c1ccc(Nc2ncc3c(n2)N(c2cccc(C(C)(C)O)n2)[C@H]2CC(C)(C)OC[C@@]32C)cc1", "note": "(single isomer, unassigned) [Example 415]", "IC50": "100 to 1000"}, {"compound": "CC1(C)C[C@H]2N(c3cccc(C(C)(C)O)n3)c3nc(Nc4ccc(O[C@@H]5CCNC5)cc4)ncc3[C@@]2(C)CO1", "note": "(single isomer, unassigned) [Example 418]", "IC50": "10 to 100"}, {"compound": "CC1(C)C[C@@H]2N(c3cccc(C(C)(C)O)n3)c3nc(Nc4ccc(O[C@H]5CCNC5)cc4)ncc3[C@]2(C)CO1", "note": "(single isomer, unassigned) [Example 420]", "IC50": "10 to 100"}, {"compound": "CN1CC[C@H](Oc2ccc(Nc3ncc4c(n3)N(c3cccc(C(C)(C)O)n3)[C@H]3CC(C)(C)OC[C@@]43C)cc2)C1", "note": "(single isomer, unassigned) [Example 422]", "IC50": "10 to 100"}, {"compound": "CN1CC[C@@H](Oc2ccc(Nc3ncc4c(n3)N(c3cccc(C(C)(C)O)n3)[C@@H]3CC(C)(C)OC[C@]43C)cc2)C1", "note": "(single isomer, unassigned) [Example 424]", "IC50": "10 to 100"}, {"compound": "Cc1cc(Nc2ncc3c(n2)N(c2cccc(C(C)(C)O)n2)[C@H]2CC(C)(C)OC[C@@]32C)ccc1N1C[C@H]2C[C@@H]1CN2C", "note": "(single isomer, unassigned) [Example 426]", "IC50": "10 to 100"}, {"compound": "CN1C[C@H]2C[C@@H]1CN2c1ccc(Nc2ncc3c(n2)N(c2cccc(C(C)(C)O)n2)[C@H]2CC(C)(C)OC[C@@]32C)cc1F", "note": "(single isomer, unassigned) [Example 428]", "IC50": "100 to 1000"}, {"compound": "Cc1cc(Nc2ncc3c(n2)N(c2cccc(C(C)(C)O)n2)[C@H]2CC(C)(C)OC[C@@]32C)ccc1N1C[C@@H]2C[C@H]1CN2C", "note": "(single isomer, unassigned) [Example 430]", "IC50": "10 to 100"}, {"compound": "CN1C[C@@H]2C[C@H]1CN2c1ccc(Nc2ncc3c(n2)N(c2cccc(C(C)(C)O)n2)[C@H]2CC(C)(C)OC[C@@]32C)cc1F", "note": "(single isomer, unassigned) [Example 432]", "IC50": "100 to 1000"}, {"compound": "CN1C[C@H]2C[C@@H]1CN2c1ccc(Nc2ncc3c(n2)N(c2cccc(C(C)(C)O)n2)[C@H]2CC(C)(C)OC[C@@]32C)cc1Cl", "note": "(single isomer, unassigned) [Example 434]", "IC50": "10 to 100"}, {"compound": "CN1C[C@@H]2C[C@H]1CN2c1ccc(Nc2ncc3c(n2)N(c2cccc(C(C)(C)O)n2)[C@H]2CC(C)(C)OC[C@@]32C)cc1Cl", "note": "(single isomer, unassigned) [Example 436]", "IC50": "10 to 100"}, {"compound": "CN1CC[C@@H]2CN(c3ccc(Nc4ncc5c(n4)N(c4cccc(C(C)(C)O)n4)[C@H]4CC(C)(C)OC[C@@]54C)cc3)C[C@@H]21", "note": "(single isomer, unassigned) [Example 438]", "IC50": "100 to 1000"}, {"compound": "CN1CC[C@H]2CN(c3ccc(Nc4ncc5c(n4)N(c4cccc(C(C)(C)O)n4)[C@H]4CC(C)(C)OC[C@@]54C)cc3)C[C@H]21", "note": "(single isomer, unassigned) [Example 440]", "IC50": "10 to 100"}, {"compound": "CN1[C@@H]2C[C@H]1CN(c1ccc(Nc3ncc4c(n3)N(c3cccc(C(C)(C)O)n3)[C@H]3CC(C)(C)OC[C@@]43C)cc1)C2", "note": "(single isomer, unassigned) [Example 442]", "IC50": "100 to 1000"}, {"compound": "CN1CC2(C1)CN(c1ccc(Nc3ncc4c(n3)N(c3cccc(C(C)(C)O)n3)[C@H]3CC(C)(C)OC[C@@]43C)cc1)C2", "note": "(single isomer, unassigned) [Example 444]", "IC50": "100 to 1000"}, {"compound": "CN1C[C@@H]2CN(c3ccc(Nc4ncc5c(n4)N(c4cccc(C(C)(C)O)n4)[C@H]4CC(C)(C)OC[C@@]54C)cc3)C[C@@H]2C1", "note": "(single isomer, unassigned) [Example 445]", "IC50": "100 to 1000"}, {"compound": "CNCc1cccc(N2c3nc(Nc4ccc(N5CCN(C)CC5)c(C)c4)ncc3[C@]3(C)COC(C)(C)C[C@H]23)n1", "note": "(single isomer, unassigned) [Example 447]", "IC50": "100 to 1000"}, {"compound": "CNCc1cccc(N2c3nc(Nc4ccc(N5CCN(C)C(=O)C5)cc4)ncc3[C@]3(C)COC(C)(C)C[C@H]23)n1", "note": "(single isomer, unassigned) [Example 449]", "IC50": "10 to 100"}, {"compound": "CNCc1cccc(N2c3nc(Nc4ccc([C@H]5CCNC5)cc4)ncc3[C@]3(C)COC(C)(C)C[C@H]23)n1", "note": "(single isomer, unassigned) [Example 451]", "IC50": "100 to 1000"}, {"compound": "CNCc1cccc(N2c3nc(Nc4ccc([C@@H]5CCNC5)cc4)ncc3[C@]3(C)COC(C)(C)C[C@H]23)n1", "note": "(single isomer, unassigned) [Example 453]", "IC50": "100 to 1000"}, {"compound": "CNCc1cccc(N2c3nc(Nc4ccn(C)c(=O)c4)ncc3[C@]3(C)COC(C)(C)C[C@H]23)n1", "note": "(single isomer, unassigned) [Example 455]", "IC50": "≥ 1000"}, {"compound": "CNCc1cccc(N2c3nc(Nc4ccn(C)c(=O)c4)ncc3[C@@]3(C)COC(C)(C)C[C@@H]23)n1", "note": "(single isomer, unassigned) [Example 456]", "IC50": "10 to 100"}, {"compound": "CNCc1cccc(N2c3nc(Nc4ccc(C(C)(C)C(=O)O)cc4)ncc3[C@]3(C)COC(C)(C)C[C@H]23)n1", "note": "(single isomer, unassigned) [Example 457]", "IC50": "≥ 1000"}, {"compound": "CNCc1cccc(N2c3nc(Nc4ccc(-c5cnn(C)c5)nc4)ncc3[C@]3(C)COC(C)(C)C[C@H]23)n1", "note": "(single isomer, unassigned) [Example 459]", "IC50": "100 to 1000"}, {"compound": "CNCc1cccc(N2c3nc(Nc4ccc(=O)n(C)c4)ncc3[C@]3(C)COC(C)(C)C[C@H]23)n1", "note": "(single isomer, unassigned) [Example 461]", "IC50": "≥ 1000"}, {"compound": "CNCc1cccc(N2c3nc(Nc4ccc(=O)n(C)c4)ncc3[C@@]3(C)COC(C)(C)C[C@@H]23)n1", "note": "(single isomer, unassigned) [Example 462]", "IC50": "10 to 100"}, {"compound": "CNCc1cccc(N2c3nc(Nc4ccc(-c5cnn(C)c5)c(C)c4)ncc3[C@]3(C)COC(C)(C)C[C@H]23)n1", "note": "(single isomer, unassigned) [Example 463]", "IC50": "100 to 1000"}, {"compound": "CNCc1cccc(N2c3nc(Nc4ccc(-n5ccnc5)c(F)c4)ncc3[C@]3(C)COC(C)(C)C[C@H]23)n1", "note": "(single isomer, unassigned) [Example 465]", "IC50": "100 to 1000"}, {"compound": "CNCc1cccc(N2c3nc(Nc4ccc(-n5ccnc5)nc4)ncc3[C@]3(C)COC(C)(C)C[C@H]23)n1", "note": "(single isomer, unassigned) [Example 467]", "IC50": "≥ 1000"}, {"compound": "CNCc1cccc(N2c3nc(Nc4cccc(N5CCOCC5)c4)ncc3[C@]3(C)COC(C)(C)C[C@H]23)n1", "note": "(single isomer, unassigned) [Example 469]", "IC50": "100 to 1000"}, {"compound": "CNCc1cccc(N2c3nc(Nc4cnn(C)c4)ncc3[C@]3(C)COC(C)(C)C[C@H]23)n1", "note": "(single isomer, unassigned) [Example 471]", "IC50": "100 to 1000"}, {"compound": "CNCc1cccc(N2c3nc(Nc4ccc(N5CCOC[C@H]5C)cc4)ncc3[C@]3(C)COC(C)(C)C[C@H]23)n1", "note": "(single isomer, unassigned) [Example 474]", "IC50": "100 to 1000"}, {"compound": "CNCc1cccc(N2c3nc(Nc4ccc(N5CCOC[C@@H]5C)cc4)ncc3[C@]3(C)COC(C)(C)C[C@H]23)n1", "note": "(single isomer, unassigned) [Example 475]", "IC50": "100 to 1000"}, {"compound": "CNCc1cccc(N2c3nc(Nc4cnnc(C)c4)ncc3[C@]3(C)COC(C)(C)C[C@H]23)n1", "note": "(single isomer, unassigned) [Example 477]", "IC50": "100 to 1000"}, {"compound": "CNCc1cccc(N2c3nc(Nc4cnnc(C)c4)ncc3[C@@]3(C)COC(C)(C)C[C@@H]23)n1", "note": "(single isomer, unassigned) [Example 478]", "IC50": "10 to 100"}, {"compound": "CNCc1cccc(N2c3nc(Nc4ccc(N5[C@@H]6COC[C@H]5C6)cc4)ncc3[C@]3(C)COC(C)(C)C[C@H]23)n1", "note": "(single isomer, unassigned) [Example 480]", "IC50": "100 to 1000"}, {"compound": "CNCc1cccc(N2c3nc(Nc4ccc(N5C[C@H]6C[C@@H](C5)O6)cc4)ncc3[C@]3(C)COC(C)(C)C[C@H]23)n1", "note": "(single isomer, unassigned) [Example 482]", "IC50": "100 to 1000"}, {"compound": "CC1(C)C[C@H]2N(c3cccc(N=S(C)(C)=O)n3)c3nc(Nc4ccc(N5CCN6CCC[C@H]6C5)cc4)ncc3[C@@]2(C)CO1", "note": "(single isomer, unassigned) [Example 507]", "IC50": "< 10"}, {"compound": "CC1(C)C[C@H]2N(c3cccc(N=S(C)(C)=O)n3)c3nc(Nc4ccc(N5CC6(COC6)C5)cc4)ncc3[C@@]2(C)CO1", "note": "(single isomer, unassigned) [Example 508]", "IC50": "< 10"}, {"compound": "CN1CCN(c2ccc(Nc3ncc4c(n3)N(c3cccc(N=S(C)(C)=O)n3)[C@@H]3CC(C)(C)OC[C@]43C)cn2)CC1", "note": "(single isomer, unassigned) [Example 509]", "IC50": "< 10"}, {"compound": "CN1CCN(c2ccc(Nc3ncc4c(n3)N(c3cccc(N=S(C)(C)=O)n3)[C@@H]3CC(C)(C)OC[C@]43C)nc2)CC1", "note": "(single isomer, unassigned) [Example 510]", "IC50": "< 10"}, {"compound": "CC1(C)C[C@H]2N(c3cccc(N=S(C)(C)=O)n3)c3nc(Nc4ccc(N5CCN6CCC5C6)cc4)ncc3[C@@]2(C)CO1", "note": "(single isomer, unassigned) [Example 511]", "IC50": "< 10"}, {"compound": "CC1(C)C[C@H]2N(c3cccc(N=S(C)(C)=O)n3)c3nc(Nc4ccncc4)ncc3[C@@]2(C)CO1", "note": "(single isomer, unassigned) [Example 512]", "IC50": "100 to 1000"}, {"compound": "Cn1ccc(Nc2ncc3c(n2)N(c2cccc(N=S(C)(C)=O)n2)[C@@H]2CC(C)(C)OC[C@]32C)n1", "note": "(single isomer, unassigned) [Example 513]", "IC50": "< 10"}, {"compound": "Cn1ncc(Nc2ncc3c(n2)N(c2cccc(N=S(C)(C)=O)n2)[C@@H]2CC(C)(C)OC[C@]32C)n1", "note": "(single isomer, unassigned) [Example 515]", "IC50": "< 10"}, {"compound": "CCn1cc(Nc2ncc3c(n2)N(c2cccc(N=S(C)(C)=O)n2)[C@@H]2CC(C)(C)OC[C@]32C)nn1", "note": "(single isomer, unassigned) [Example 516]", "IC50": "< 10"}, {"compound": "Cc1cc(Nc2ncc3c(n2)N(c2cccc([C@H]4CCCN4)n2)[C@H]2CC(C)(C)OC[C@@]32C)ccc1N1CCOCC1", "note": "(single isomer, unassigned) [Example 521]", "IC50": "100 to 1000"}]}]}
